From patent US10828305B2 (SHANGHAI PHARMACEUTICALS HOLDING CO., LTD., priority 2016, dated 2020) come the findings set out here.

By IC50 is commonly meant the midpoint of a concentration-inhibition curve.

In experiment [1] the target is EGFR kinase (Homo sapiens, UniProt P00533). Nature of the experiment: Enzymatic experiment on EGFR (HTRF kinEASE-TK). It is filed as biochemical. The conditions noted are these: ATP 1.65 μM; read-out: Kinase IC50 (nM) in vitro EGFR. The method, boiled down:
(§1)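 HTRF kinEASE-TK with biotinylated TK substrate in HEPES pH 7.0 buffer containing MnCl2, MgCl2 and DTT; ErbB2 at 0.06 ng/μl with 4 μM ATP, EGFR at 0.06 units/μl with 1.65 μM ATP, 30 min at room temperature after 5 min enzyme/substrate–compound preincubation. Ten-point 3-fold dilutions; Eu antibody/SA-XL665 detection, 665/620 ratio.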
On the technique in general: In TR-FRET formats the signal depends on donor and acceptor labels being close together.

For experiment [2], the system named is BT-474. Nature of the experiment: Proliferation inhibition assay in vitro, BT-474 (CellTiter-Glo). It is filed as cell-based. The conditions noted are these: Homo sapiens, 72 hours, read-out: IC50(nM) cell BT-474. The method, boiled down: (§2)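 Cells were seeded at 8.8×10^4 cells/mL for BT-474 or 6.6×10^4 cells/mL for N87 and grown overnight. Compound was added at 9 concentrations in duplicate for 72 h at 37 °C, 5% CO2. Viability was measured by CellTiter-Glo.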

For experiment [3], the target named is ErbB2 kinase (Homo sapiens, UniProt P04626). The experiment can be described thus: Enzymatic experiment on ErbB2 (HTRF kinEASE-TK). It is filed as biochemical. The conditions noted are these: ATP 4 μM; read-out: Kinase IC50 (nM) in vitro ErbB2. Summed up:
as §1

In experiment [4] the test system is N87. The experiment can be described thus: Proliferation inhibition assay in vitro, N87 (CellTiter-Glo). The format is cell-based. The conditions noted are these: Homo sapiens; 72 hours; read-out: IC50(nM) cell N87. The method, boiled down: as §2
Experiment [5] concerns human gastric cancer NCI-N87 xenograft. The experiment can be described thus: HER2 overexpressing human gastric cancer NCI-N87 xenograft model in nude mice. It is filed as in vivo, Balb/c nude mice. The conditions noted are these: 50MPK (BID), oral, 22 days.
Experiment [6] relates to human breast cancer BT-474 xenograft. The conditions noted are these: 50MPK (BID), oral, 20 days.

Sequence of ErbB2 kinase (P04626 23-1255): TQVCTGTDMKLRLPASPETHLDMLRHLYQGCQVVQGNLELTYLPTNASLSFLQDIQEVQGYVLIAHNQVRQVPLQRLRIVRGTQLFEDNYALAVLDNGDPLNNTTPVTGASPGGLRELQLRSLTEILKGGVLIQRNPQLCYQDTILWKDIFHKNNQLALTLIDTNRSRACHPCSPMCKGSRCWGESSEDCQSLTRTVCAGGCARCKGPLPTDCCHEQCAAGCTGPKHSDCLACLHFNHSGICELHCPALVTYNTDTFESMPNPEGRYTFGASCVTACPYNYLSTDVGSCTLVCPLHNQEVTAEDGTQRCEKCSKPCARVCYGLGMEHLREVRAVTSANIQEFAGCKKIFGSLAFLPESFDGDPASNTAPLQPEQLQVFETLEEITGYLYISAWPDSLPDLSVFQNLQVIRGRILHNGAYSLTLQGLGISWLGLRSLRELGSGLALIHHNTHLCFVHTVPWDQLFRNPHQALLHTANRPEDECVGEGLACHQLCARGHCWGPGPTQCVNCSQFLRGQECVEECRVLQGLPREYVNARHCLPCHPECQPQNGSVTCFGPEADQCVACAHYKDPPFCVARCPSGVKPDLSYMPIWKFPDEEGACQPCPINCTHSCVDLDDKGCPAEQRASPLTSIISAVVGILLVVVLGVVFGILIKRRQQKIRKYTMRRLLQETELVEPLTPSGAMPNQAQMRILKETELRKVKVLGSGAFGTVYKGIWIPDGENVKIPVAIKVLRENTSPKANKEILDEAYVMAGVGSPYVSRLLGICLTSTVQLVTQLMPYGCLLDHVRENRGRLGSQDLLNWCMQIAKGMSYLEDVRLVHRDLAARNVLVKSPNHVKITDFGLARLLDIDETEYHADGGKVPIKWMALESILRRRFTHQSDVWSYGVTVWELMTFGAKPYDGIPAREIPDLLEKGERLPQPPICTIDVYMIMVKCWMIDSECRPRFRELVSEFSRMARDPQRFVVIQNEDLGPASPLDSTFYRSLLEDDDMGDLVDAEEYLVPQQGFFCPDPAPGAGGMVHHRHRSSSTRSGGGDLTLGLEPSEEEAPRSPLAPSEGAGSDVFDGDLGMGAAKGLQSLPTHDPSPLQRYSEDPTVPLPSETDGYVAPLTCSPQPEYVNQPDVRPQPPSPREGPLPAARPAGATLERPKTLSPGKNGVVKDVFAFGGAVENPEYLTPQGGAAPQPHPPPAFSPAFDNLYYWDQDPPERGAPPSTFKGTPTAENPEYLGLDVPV
Sequence of EGFR kinase (P00533 25-1210): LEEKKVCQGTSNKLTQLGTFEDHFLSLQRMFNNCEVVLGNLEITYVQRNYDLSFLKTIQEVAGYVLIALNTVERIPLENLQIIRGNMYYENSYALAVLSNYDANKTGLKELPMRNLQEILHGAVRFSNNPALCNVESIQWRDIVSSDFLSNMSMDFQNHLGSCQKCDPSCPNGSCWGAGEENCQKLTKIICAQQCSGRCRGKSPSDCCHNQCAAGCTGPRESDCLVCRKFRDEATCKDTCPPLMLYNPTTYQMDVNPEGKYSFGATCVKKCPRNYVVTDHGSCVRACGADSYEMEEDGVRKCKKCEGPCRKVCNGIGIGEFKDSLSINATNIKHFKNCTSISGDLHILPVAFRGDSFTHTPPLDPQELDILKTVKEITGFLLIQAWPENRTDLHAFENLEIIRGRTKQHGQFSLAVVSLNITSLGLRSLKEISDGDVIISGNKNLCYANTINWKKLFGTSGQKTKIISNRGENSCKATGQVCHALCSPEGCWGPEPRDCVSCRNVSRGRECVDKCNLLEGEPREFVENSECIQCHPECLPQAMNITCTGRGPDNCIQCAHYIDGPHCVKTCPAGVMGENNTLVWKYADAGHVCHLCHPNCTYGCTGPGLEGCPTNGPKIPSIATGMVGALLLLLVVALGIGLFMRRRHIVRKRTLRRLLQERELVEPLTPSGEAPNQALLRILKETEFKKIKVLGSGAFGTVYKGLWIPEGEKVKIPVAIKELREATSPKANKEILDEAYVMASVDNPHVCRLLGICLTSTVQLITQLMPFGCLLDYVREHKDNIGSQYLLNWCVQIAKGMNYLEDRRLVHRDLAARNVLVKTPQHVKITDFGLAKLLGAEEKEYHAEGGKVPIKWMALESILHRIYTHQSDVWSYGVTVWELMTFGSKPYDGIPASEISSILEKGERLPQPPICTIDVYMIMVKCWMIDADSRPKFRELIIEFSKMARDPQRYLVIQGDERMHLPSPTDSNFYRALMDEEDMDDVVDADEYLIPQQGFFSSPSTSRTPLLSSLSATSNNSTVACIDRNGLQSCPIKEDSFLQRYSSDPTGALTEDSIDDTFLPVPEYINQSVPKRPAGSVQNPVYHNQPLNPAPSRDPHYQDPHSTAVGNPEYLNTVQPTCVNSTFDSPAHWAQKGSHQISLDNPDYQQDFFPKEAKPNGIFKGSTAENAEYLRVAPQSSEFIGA

Take `Cc1cc(Nc2ncnc3ccc(/C=C/CNC(=O)C4CC4)cc23)ccc1Oc1cc2nncn2cn1` [Embodiment 122, (E)-N-(3-(4-((4-([1,2,4]triazolo[4,3-c]pyrimidin-7-yloxy)-3-methylphenyl)amino)quinazolin-6-yl)allyl)cyclopropylcarboxamide]: the IC50 is 87.2 nM in experiment [1], 37 nM in experiment [2], 2.7 nM in experiment [3] and 92 nM in experiment [4].

For the molecule `Cc1cc(Nc2ncnc3ccc(-c4ccc(CNCCS(C)(=O)=O)n4C)cc23)ccc1Oc1cc2nncn2cn1` [Embodiment 123, N-(4-([1,2,4]triazolo[4,3-c]pyrimidin-7-yloxy)-3-methylphenyl)-6-(1-methyl-5-(((2-(methylsulfonyl)ethyl)amino)methyl)-1H-pyrrol-2-yl)quinazolin-4-amine], the IC50 in experiment [1] came out at 32.8 nM; in experiment [2], 219 nM; in experiment [3] it was 4.4 nM; in experiment [4], 429 nM.

With `C=CC(=O)Nc1ccc2ncnc(Nc3ccc(Oc4cc5nncn5cn4)c(C)c3)c2c1` [Embodiment 124, N-(4-((4-([1,2,4]triazolo[4,3-c]pyrimidin-7-yloxy)-3-methylphenyl)amino)quinazolin-6-yl) acrylamide], the concentration for half-maximal inhibition (IC50) in experiment [1] stood at 2.3 nM; in experiment [2], 9.5 nM; in experiment [3] it was 2.8 nM; in experiment [4] it was 11.4 nM.

Regarding `C=C(F)C(=O)Nc1cc2c(Nc3ccc(Oc4cc5nncn5cn4)c(C)c3)ncnc2cc1F` [Embodiment 125, N-(4-((4-([1,2,4]triazolo[4,3-c]pyrimidin-7-yloxy)-3-methylphenyl)amino)-7-fluoroquinolin-6-yl)-2-fluoroacryamide], the IC50 in experiment [1] amounted to 14.7 nM; in experiment [2] it was 13.6 nM; in experiment [3] it was 3.4 nM; in experiment [4], 6.8 nM.

On to `Cc1cc(Nc2ncnc3ccc(NC4=NC(C)(C)CO4)cc23)cc(C)c1Oc1cc2nncn2cn1` [Embodiment 126, N^4-(4-([1,2,4]triazolo[4,3-c]pyrimidin-7-yloxy)-3,5-dimethylphenyl)-N^6-(4,4-dimethyl-4,5-dihydrooxazol-2-yl)quinazolin-4,6-diamine], for which the IC50 came to 53 nM in experiment [1], 143 nM in experiment [2], 6.7 nM in experiment [3] and 82.9 nM in experiment [4].

For the molecule `C=C(F)C(=O)Nc1cc2c(Nc3ccc(Oc4cc5nncn5cn4)c(C)c3)ncnc2cc1OCC` [Embodiment 127, N-(4-((4-([1,2,4]triazolo[4,3-c]pyrimidin-7-yloxy)-3-methylphenyl)amino)-7-ethoxyquinazolin-6-yl)-2-fluoroacrylamide], the IC50 in experiment [1] was 6.6 nM; in experiment [2] it was 8 nM; in experiment [3], 5.6 nM; in experiment [4], 30.7 nM.

Consider `CC(=O)C(=O)Nc1ccc2ncnc(Nc3ccc(Oc4cc5nncn5cn4)c(C)c3)c2c1` [Embodiment 128, N-(4-((4-([1,2,4]triazolo[4,3-c]pyrimidin-7-yloxy)-3-methylphenyl)amino)quinazolin-6-yl)-2-oxopropionamide], for which the IC50 in experiment [1] is 28.7 nM; in experiment [2] it was 484 nM; in experiment [3] it was 14.8 nM; in experiment [4] it was 868 nM.

In the case of `CCC1COC(Nc2ccc3ncnc(Nc4ccc(Oc5cc6nncn6cn5)c(C)c4)c3c2)=N1` (stereo not shown) [Embodiment 129, N^4-(4-([1,2,4]triazolo[4,3-c]pyrimidin-7-yloxy)-3-methylphenyl)-N^6-(4-ethyl-4,5-dihydrooxazol-2-yl)quinazolin-4,6-diamine], the IC50 in experiment [1] was 56.9 nM; in experiment [2] it was 189 nM; in experiment [3], 4.4 nM; in experiment [4] it was 121 nM.

For `CS(=O)(=O)CCNCc1ccc(-c2ccc3ncnc(Nc4ccc(OCc5cccc(F)c5)c(Cl)c4)c3c2)o1` [Lapatinib, reference compound], the entries for the “tumor volume inhibition rate (GI %)” value in experiment [5] and in experiment [6] were 87.8% and 19.2%, respectively.
